Source: ChEMBL document CHEMBL4414549 (J Med Chem, 2019)

Tests used:
[1] = in vivo; conditions: Sprague-Dawley, rat, po, 5 mg/kg
[2] = in vivo; conditions: Sprague-Dawley, rat, iv, 1 mg/kg
[3] = in vivo; conditions: Sprague-Dawley, rat, po, 5 mg/kg; remark: listed apart in the source
[4] = in vivo; conditions: Sprague-Dawley, rat, iv, 1 mg/kg; remark: listed apart in the source
[5] = in vivo; conditions: Sprague-Dawley, rat, po, 5 mg/kg; remark: listed apart in the source
[6] = in vivo; conditions: Sprague-Dawley, rat, po, 5 mg/kg; remark: listed apart in the source
[7] = in vivo; conditions: Sprague-Dawley, rat, iv, 1 mg/kg; remark: listed apart in the source
[8] = Plasma concentration in ICR mouse at 2.9 mg/kg, po administered as single dose measured at 0.5 hrs by LC-MS/MS analysis; type: ADME, organism-based
[9] = Plasma concentration in ICR mouse at 0.7 mg/kg, po administered as single dose measured at 0.5 hrs by LC-MS/MS analysis; type: ADME, organism-based
[10] = Plasma concentration in ICR mouse at 17.7 mg/kg, po administered as single dose measured at 0.5 hrs by LC-MS/MS analysis; type: ADME, organism-based
[11] = Plasma concentration in ICR mouse at 1.4 mg/kg, po administered as single dose measured at 0.5 hrs by LC-MS/MS analysis; type: ADME, organism-based
[12] = Plasma concentration in ICR mouse at 14.5 mg/kg, po administered as single dose measured at 2 hrs by LC-MS/MS analysis; type: ADME, organism-based
[13] = Plasma concentration in ICR mouse at […], po administered as single dose measured at 0.5 hrs by LC-MS/MS analysis; type: ADME, organism-based
[14] = Plasma concentration in ICR mouse at 4.4 mg/kg, po administered as single dose measured at 0.5 hrs by LC-MS/MS analysis; type: ADME, organism-based
[15] = Plasma concentration in ICR mouse at 2.2 mg/kg, po administered as single dose measured at 0.5 hrs by LC-MS/MS analysis; type: ADME, organism-based
[16] = Plasma concentration in ICR mouse at 8.9 mg/kg, po administered as single dose measured at 0.5 hrs by LC-MS/MS analysis; type: ADME, organism-based
[17] = Plasma concentration in ICR mouse at 14.5 mg/kg, po administered as single dose measured at 4 hrs by LC-MS/MS analysis; type: ADME, organism-based
[18] = Cmax in ICR mouse plasma at 14.5 mg/kg, po administered as single dose by LC-MS/MS analysis; type: ADME, organism-based; parameters: dose 14.5 mg/kg, route oral
[19] = Oral bioavailability in human in fed state at 560 mg administered daily; type: ADME, organism-based; conditions: in vivo
[20] = Oral bioavailability in human in fasting state at 560 mg administered daily; type: ADME, organism-based; conditions: in vivo

Row | Cmax [1] [ng/mL] | Vd [2] [L/kg] | AUC [3] [ng·h/mL] | clearance [4] [mL/min/kg] | bioavailability [5] [%] | Tmax [6] [min] | half-life [7] [min] | concentration at 0.5 h [8] [nM] | concentration at 0.5 h [9] [nM] | concentration at 0.5 h [10] [nM] | concentration at 0.5 h [11] [nM] | concentration at 2 h [12] [nM] | concentration at 0.5 h [13] [nM] | concentration at 0.5 h [14] [nM] | concentration at 0.5 h [15] [nM] | concentration at 0.5 h [16] [nM] | concentration at 4 h [17] [nM] | Cmax [18] [nM] | SMILES | bioavailability [19] [%] | bioavailability [20] [%]
1 | 19.6 | 1.19 | 51.1 | 93.9 | 5.7 | 19.8 | 12.6 | – | – | – | – | – | – | – | – | – | – | – | C=CC(=O)NCC1CCNc2c(C(N)=O)c(-c3ccc(Oc4ccccc4)cc3)nn21 (stereo not given) | – | –
2 | 10.4 | 2.85 | 50.3 | 169 | 8.6 | 140 | 15.6 | – | – | – | – | – | – | – | – | – | – | – | C=CC(=O)N1CC(C2CCNc3c(C(N)=O)c(-c4ccc(Oc5ccccc5)cc4)nn32)C1 (stereo not given) | – | –
3 | 235 | 2.32 | 257 | 76.8 | 23.6 | 19.8 | – | 320 | 40 | 500 | 110 | 470 | 590 | 180 | 70 | 350 | 90 | 4800 | C=CC(=O)N1CCC([C@@H]2CCNc3c(C(N)=O)c(-c4ccc(Oc5ccccc5)cc4)nn32)CC1 [ZANUBRUTINIB] | – | –
4 | – | – | – | – | – | – | – | – | – | – | – | – | – | – | – | – | – | – | C=CC(=O)N1CCC[C@@H](n2nc(-c3ccc(Oc4ccccc4)cc3)c3c(N)ncnc32)C1 [IBRUTINIB] | 8.4 | 3.9

Row | SMILES | Cmax [1] [ng/mL] | Vd [2] [L/kg] | AUC [3] [ng·h/mL] | clearance [4] [mL/min/kg] | bioavailability [5] [%] | Tmax [6] [min] | half-life [7] [min] | concentration at 0.5 h [8] [nM] | concentration at 0.5 h [9] [nM] | concentration at 0.5 h [10] [nM] | concentration at 0.5 h [11] [nM] | concentration at 2 h [12] [nM] | concentration at 0.5 h [13] [nM] | concentration at 0.5 h [14] [nM] | concentration at 0.5 h [15] [nM] | concentration at 0.5 h [16] [nM] | concentration at 4 h [17] [nM] | Cmax [18] [nM] | bioavailability [19] [%] | bioavailability [20] [%]
5 | C=CC(=O)Nc1ccccc1C1CCNc2c(C(N)=O)c(-c3ccc(OCC4CC4)cc3)nn21 (stereo not given) | 202 | 1.01 | 344 | 82.3 | 34 | 19.8 | 24 | – | – | – | – | – | – | – | – | – | – | – | – | –
